Data published in patent US6006753A, “Use of GLP-1 or analogs to abolish catabolic changes after surgery” (Eli Lilly and Company, priority 1997, dated 1999).

What was measured:
[1] = Blood glucose in NIDDM patients continuously infused for ten hours during the night (Example 2); assay type: in vivo, human; conditions: five NIDDM patients
Procedure: GLP-1 (7-36) amide was administered by a subcutaneous infusion at a dose rate of 1.2 pmol/kg/hr, for ten hours during the night, to five patients having non-insulin dependent diabetes (NIDDM). […] The rate of insulin infusion was adjusted every two hours to achieve optimum control, and to avoid hypoglycemia.

[2] = Blood glucose in NIDDM patients infused for three hours at each meal during the day (Example 3); assay type: in vivo, human; conditions: five NIDDM patients
Description: During the day, GLP-1 (7-36) amide was infused into five NIDDM patients for three hours during breakfast, lunch, and dinner.

[3] = overnight glucose infusion 5 mg/kg/min before elective abdominal surgery (Ljungqvist 1994); cited from earlier work
[4] = Glucose infusion rate (GIR) in hyperinsulinemic, normoglycemic clamp, preop vs postop, elective surgery patients; assay type: in vivo, human
Procedure: (§1) After one hour at steady state conditions, all patients underwent a standardized surgical treatment (hipartroplasty). […] The hyperinsulinemic, normoglycemic clamp was then maintained during surgery and continued for a further 3-4 hours after surgery. The data will be presented according to the following nomenclature:
(§2) The control group received no basal or preop clamp on the day of surgery.
(§3) All values are individual values, or mean+SEM (standard error of the mean). Statistical significance is accepted at p<0.05 using Wilcoxon's signed rank test and the Mann-Whitney U-test for paired and unpaired data respectively.

[5] = Hormone levels (RIA) in patients undergoing hipartroplasty with hyperinsulinemic, normoglycemic clamp before and during surgery; assay type: in vivo, human; set-up: Glucagon / Cortisol: unit not given here
Procedure: as §1, §2
Blood samples were collected from a heated hand vein repeatedly during the basal, preop, early op, late op and postop periods. Blood glucose was measured immediately upon collection using the glucose oxidase method (Yellow Springs Instruments, Yellow Springs, Ohio) [Hugget, A. S., et al., Lancet 2:368-70 (1957)]. […] Methods of hormone radioimmunoassay, Academic Press, New York and London (1979) pp. 643-56]; and glucagon (Euro-Diagnostica AB, Malm6, Sweden) [Faloona, G. R., et al., Glucagpn radioimmunoassay technique. 5 Vol. 1: Academic Press, New York (1974)].
as §3

[6] = Indirect calorimetry: substrate oxidation rates and energy expenditure during and after surgery; assay type: in vivo, human
Procedure: Indirect calorimetry (Deltatrac® Dansjoo, Sweden) [Frayn, K. N. J. Appl. Physiol. 55(2):628-34 (1983); Takala, J., et al., Crit. Care Med. 17(10): 1041-47 (1989)] was performed for 30 minutes during the basal phase, twice during surgery (early op and late op), and during the last 30 minutes of the preop and postop clamps. Timed sampling of urine for analysis of urinary urea excretion was performed. After correction for changes in urea pool size [Tappy, L, et al., Diabetes 37:1212-16 (1988)], non-protein energy expenditure (EE), respiratory quotients (RQ) and substrate oxidation rates were calculated.

[7] = Hour 21:00, continuous infusion for ten hours during the night (GLP-1 (7-36) amide sc 1.2 pmol/kg/hr; insulin rate adjusted every two hours)
[8] = Hour 7:00, GLP-1 (7-36) amide infused three hours from start of each meal, insulin sc injection just before each meal
[9] = insulin group vs control, p<0.05
[10] = basal, 30 min before start of insulin infusion, insulin group n=7, mean ± SEM
[11] = early op, insulin 0.8 mU/kg/min iv, n=7
[12] = late op, insulin 0.8 mU/kg/min iv, n=7
[13] = postop clamp, insulin 0.8 mU/kg/min iv, n=7
[14] = preop clamp, insulin 0.8 mU/kg/min iv, n=7

## CC[C@H](C)[C@H](NC(=O)[C@H](Cc1ccccc1)NC(=O)[C@H](CCC(=O)O)NC(=O)[C@H](CCCCN)NC(=O)[C@H](C)NC(=O)[C@H](C)NC(=O)[C@H](CCC(N)=O)NC(=O)CNC(=O)[C@H](CCC(=O)O)NC(=O)[C@H](CC(C)C)NC(=O)[C@H](Cc1ccc(O)cc1)NC(=O)[C@H](CO)NC(=O)[C@H](CO)NC(=O)[C@@H](NC(=O)[C@H](CC(=O)O)NC(=O)[C@H](CO)NC(=O)[C@@H](NC(=O)[C@H](Cc1ccccc1)NC(=O)[C@@H](NC(=O)CNC(=O)[C@H](CCC(=O)O)NC(=O)[C@H](C)NC(=O)[C@@H](N)Cc1c[nH]cn1)[C@@H](C)O)[C@@H](C)O)C(C)C)C(=O)N[C@@H](C)C(=O)N[C@@H](Cc1c[nH]c2ccccc12)C(=O)N[C@@H](CC(C)C)C(=O)N[C@H](C(=O)N[C@@H](CCCCN)C(=O)NCC(=O)N[C@@H](CCCNC(=N)N)C(N)=O)C(C)C [GLP-1 (7-36) amide, GLP-1(7-36) amide]
[1]; Hour 0:00, night infusion
  Average Blood Glucose: 4.4 mM
[1]; Hour 1:00, night infusion
  Average Blood Glucose: 4.4 mM
[1]; Hour 2:00, night infusion
  Average Blood Glucose: 4.8 mM
[1]; Hour 3:00, night infusion
  Average Blood Glucose: 5.2 mM
[1]; Hour 4:00, night infusion
  Average Blood Glucose: 5.4 mM
[1]; Hour 5:00, night infusion
  Average Blood Glucose: 5.8 mM
[1]; Hour 6:00, night infusion
  Average Blood Glucose: 6.0 mM
[1]; Hour 7:00, night infusion
  Average Blood Glucose: 6.2 mM
[1]; [7]
  Average Blood Glucose: 7.5 mM
[1]; Hour 22:00, night infusion
  Average Blood Glucose: 5.4 mM
[1]; Hour 23:00, night infusion
  Average Blood Glucose: 4.1 mM
[1]; night infusion
  Metabolic control compared with insulin: better than that achieved by insulin
[1]; subcutaneous infusion 1.2 pmol/kg/hr, ten hours during the night
  Effect on blood glucose: nearly normalized blood glucose
[2]; [8]
  Average Blood Glucose: 5.4 mM
[2]; Hour 8:00, meal-time dosing
  Average Blood Glucose: 4.9 mM
[2]; Hour 9:00, meal-time dosing
  Average Blood Glucose: 5.7 mM
[2]; Hour 10:00, meal-time dosing
  Average Blood Glucose: 5.8 mM
[2]; Hour 11:00, meal-time dosing
  Average Blood Glucose: 8.1 mM
[2]; Hour 12:00, meal-time dosing
  Average Blood Glucose: 9.4 mM
[2]; Hour 13:00, meal-time dosing
  Average Blood Glucose: 7.2 mM
[2]; Hour 14:00, meal-time dosing
  Average Blood Glucose: 5.3 mM
[2]; Hour 15:00, meal-time dosing
  Average Blood Glucose: 7.2 mM
[2]; Hour 16:00, meal-time dosing
  Average Blood Glucose: 10.4 mM
[2]; Hour 17:00, meal-time dosing
  Average Blood Glucose: 9.2 mM
[2]; Hour 18:00, meal-time dosing
  Average Blood Glucose: 5.7 mM
[2]; Hour 19:00, meal-time dosing
  Average Blood Glucose: 6.6 mM
[2]; Hour 20:00, meal-time dosing
  Average Blood Glucose: 8.3 mM
[2]; Hour 21:00, meal-time dosing
  Average Blood Glucose: 9.3 mM
[2]
  Blood glucose level immediately after terminating each infusion: increased significantly
[2]; while GLP-1 was infused
  Post-prandial glucose excursions observed with insulin injection: eliminated

## O=C[C@H](O)[C@@H](O)[C@H](O)[C@H](O)CO [glucose]
[3]
  Average loss of insulin sensitivity after the operation: 32%

## insulin: insulin (Actrapid®, Novo, Copenhagen) in Example 1; insulin comparator in Examples 2 and 3
[1]; Hour 0:00, night infusion
  Average Blood Glucose: 5.6 mM
[1]; Hour 1:00, night infusion
  Average Blood Glucose: 5.1 mM
[1]; Hour 2:00, night infusion
  Average Blood Glucose: 5.2 mM
[1]; Hour 3:00, night infusion
  Average Blood Glucose: 5.4 mM
[1]; Hour 4:00, night infusion
  Average Blood Glucose: 5.7 mM
[1]; Hour 5:00, night infusion
  Average Blood Glucose: 6.0 mM
[1]; Hour 6:00, night infusion
  Average Blood Glucose: 6.1 mM
[1]; Hour 7:00, night infusion
  Average Blood Glucose: 6.1 mM
[1]; [7]
  Average Blood Glucose: 6.9 mM
[1]; Hour 22:00, night infusion
  Average Blood Glucose: 6.6 mM
[1]; Hour 23:00, night infusion
  Average Blood Glucose: 5.9 mM
[4]; elevated insulin levels before and maintained throughout the operation
  Catabolic changes after surgery: completely abolished
[4]; insulin group n=7, p=0.2
  Change in average GIR in the postop clamp compared to the preop clamp: +16±20%
[4]; [9]
  Average GIR during the postop clamp compared to the control group: significantly higher
[5]; [10]
  C-peptide: .68 ± .09
  Cortisol: 171 ± 41
  Glucagon: 58 ± 7
[5]; early op (10 to 40 min after initiation of surgery), insulin 0.8 mU/kg/min iv, n=7
  C-peptide: .42 ±.06
[5]; [11]
  Cortisol: 234 ± 46
  Glucagon: 40 ± 3
[5]; insulin group vs fasted control
  C-peptide levels during surgery compared to the control group: lower
[5]; insulin group, during surgery and the postop clamp, 0.8 mU/kg/min iv
  Serum insulin levels: around 60 μU/ml
[5]; insulin group, vs preop
  Serum cortisol levels after surgery: decreased
[5]; insulin group, vs preop, p<0.05
  Serum glucagon levels after surgery: decreased
[5]; late op (last 30 min of surgery), insulin 0.8 mU/kg/min iv, n=7
  C-peptide: .58 ± .12
[5]; [12]
  Cortisol: 212 ± 44
  Glucagon: 35 ± 4
[5]; [13]
  C-peptide: .52 ± .11
  Cortisol: 172 ± 83
  Glucagon: 33 ± 4
[5]; [14]
  Cortisol: 266 ± 35
  Glucagon: 52 ± 3
[5]; preop clamp, insulin 0.8 mU/kg/min iv, n=7, mean ± SEM
  C-peptide: .45 ± .05
[2]; [8]
  Average Blood Glucose: 6.1 mM
[2]; Hour 8:00, meal-time dosing
  Average Blood Glucose: 7.0 mM
[2]; Hour 9:00, meal-time dosing
  Average Blood Glucose: 9.1 mM
[2]; Hour 10:00, meal-time dosing
  Average Blood Glucose: 9.9 mM
[2]; Hour 11:00, meal-time dosing
  Average Blood Glucose: 8.2 mM
[2]; Hour 12:00, meal-time dosing
  Average Blood Glucose: 6.5 mM
[2]; Hour 13:00, meal-time dosing
  Average Blood Glucose: 9.1 mM
[2]; Hour 14:00, meal-time dosing
  Average Blood Glucose: 8.1 mM
[2]; Hour 15:00, meal-time dosing
  Average Blood Glucose: 7.0 mM
[2]; Hour 16:00, meal-time dosing
  Average Blood Glucose: 7.2 mM
[2]; Hour 17:00, meal-time dosing
  Average Blood Glucose: 6.5 mM
[2]; Hour 18:00, meal-time dosing
  Average Blood Glucose: 7.3 mM
[2]; Hour 19:00, meal-time dosing
  Average Blood Glucose: 6.1 mM
[2]; Hour 20:00, meal-time dosing
  Average Blood Glucose: 6.0 mM
[2]; Hour 21:00, meal-time dosing
  Average Blood Glucose: 6.4 mM
[6]; insulin group
  Substrate oxidation rates at the postop clamp as compared to the preop clamp: no change
[6]; insulin group vs control
  Resting energy expenditure (EE) during or after surgery, between groups: did not differ
[6]; [9]
  Fat oxidation rates during surgery: significantly lower
  Glucose oxidation rates during surgery: significantly higher
